As a reminder, the EC50 is the concentration needed to bring the measured effect to its halfway point.

Drawing on ChEMBL document CHEMBL2034891, “Discovery, design and synthesis of Y-shaped peroxisome proliferator-activated receptor δ agonists as potent anti-obesity agents in vivo” (Eur J Med Chem, 2012), this text covers EC50, Ratio EC50 and Activity for 25 molecules.

Experiment [1] concerns the target T1, Peroxisome proliferator-activated receptor delta (Homo sapiens, UniProt Q03181).
T1 sequence (Q03181 whole entry): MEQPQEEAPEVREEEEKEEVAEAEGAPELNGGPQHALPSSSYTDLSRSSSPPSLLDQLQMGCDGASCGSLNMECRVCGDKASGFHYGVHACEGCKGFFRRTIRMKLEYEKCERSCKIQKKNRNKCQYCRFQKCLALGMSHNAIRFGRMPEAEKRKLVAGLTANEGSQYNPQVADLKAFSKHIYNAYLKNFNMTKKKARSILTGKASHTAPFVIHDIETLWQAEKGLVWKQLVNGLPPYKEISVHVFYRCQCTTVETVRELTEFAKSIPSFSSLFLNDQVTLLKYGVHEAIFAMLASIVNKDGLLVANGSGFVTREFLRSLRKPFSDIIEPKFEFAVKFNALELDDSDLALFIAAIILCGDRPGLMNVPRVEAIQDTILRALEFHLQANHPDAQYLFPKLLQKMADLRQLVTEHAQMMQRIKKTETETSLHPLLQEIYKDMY
The experiment is described as follows: Binding affinity at human GST-tagged PPARdelta ligand binding domain after 1 hr by time-resolved FRET analysis.

In experiment [2] the target is T2, Peroxisome proliferator-activated receptor gamma (Homo sapiens, UniProt P37231).
T2 sequence (P37231 whole entry): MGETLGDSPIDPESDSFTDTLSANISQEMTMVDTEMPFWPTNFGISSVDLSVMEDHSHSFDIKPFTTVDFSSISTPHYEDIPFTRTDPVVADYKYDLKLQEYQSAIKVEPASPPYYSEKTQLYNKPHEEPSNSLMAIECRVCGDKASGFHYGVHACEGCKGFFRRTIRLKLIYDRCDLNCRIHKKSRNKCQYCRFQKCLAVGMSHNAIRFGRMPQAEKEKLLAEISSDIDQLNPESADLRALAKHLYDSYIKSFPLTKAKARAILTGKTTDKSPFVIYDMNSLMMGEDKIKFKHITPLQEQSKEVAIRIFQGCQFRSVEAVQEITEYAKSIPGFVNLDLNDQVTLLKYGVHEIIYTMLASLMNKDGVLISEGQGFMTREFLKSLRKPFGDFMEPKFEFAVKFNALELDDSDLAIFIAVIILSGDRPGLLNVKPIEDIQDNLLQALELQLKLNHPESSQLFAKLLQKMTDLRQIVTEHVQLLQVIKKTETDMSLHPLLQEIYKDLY
In words: Transactivation activity at human PPARgamma expressed in african green monkey CV1 cells after 24 hrs by luciferase reporter gene assay. The class given is cell-based, CV-1. Background: A reporter such as luciferase makes a cellular process visible.

Experiment [3] deals with T3, Peroxisome proliferator-activated receptor alpha (Homo sapiens, UniProt Q07869).
T3 sequence (Q07869 whole entry): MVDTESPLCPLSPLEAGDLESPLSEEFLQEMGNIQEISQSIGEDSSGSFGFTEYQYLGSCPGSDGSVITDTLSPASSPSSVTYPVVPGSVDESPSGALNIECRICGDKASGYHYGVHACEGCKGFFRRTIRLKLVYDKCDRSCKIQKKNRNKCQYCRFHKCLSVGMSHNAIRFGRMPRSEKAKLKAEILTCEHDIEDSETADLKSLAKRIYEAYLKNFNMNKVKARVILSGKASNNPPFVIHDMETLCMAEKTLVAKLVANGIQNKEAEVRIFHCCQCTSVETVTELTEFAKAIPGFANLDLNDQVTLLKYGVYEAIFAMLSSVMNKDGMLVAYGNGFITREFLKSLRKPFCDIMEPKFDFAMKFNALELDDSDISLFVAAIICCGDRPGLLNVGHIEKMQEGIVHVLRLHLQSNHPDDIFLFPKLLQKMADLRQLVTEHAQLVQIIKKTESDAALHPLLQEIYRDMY
In words: Transactivation activity at human PPARalpha expressed in african green monkey CV1 cells after 24 hrs by luciferase reporter gene assay. The class given is cell-based, CV-1.

Experiment [4] has as its target T1, Peroxisome proliferator-activated receptor delta. The experiment is described as follows: Transactivation activity at human PPARdelta expressed in african green monkey CV1 cells after 24 hrs by luciferase reporter gene assay. Format: cell-based, CV-1.
Experiment [5] is filed under the species Homo sapiens. In words: Selectivity ratio of EC50 for human PPARalpha to EC50 for human PPARdelta.
Experiment [6] concerns Mus musculus. In words: Antiobesity activity in high-fat diet fed C57BL/6 mouse assessed as decrease in body weight gain at 10 mg/kg, po QD relative to control. The class given is functional. Set-up: scale not given: the % may be the effect or the level left.

Structures are written as SMILES.

In turn, `CCCc1c(OCCCSc2ccc(CC(=O)O)cc2Cl)ccc2c(C(F)(F)F)noc12` registered an EC50 in experiment [1] of 0.0079 µM.

With `Cc1cc(SC(Cc2c3ccccc3cc3ccccc23)c2sc(-c3ccc(C(F)(F)F)cc3)nc2C)ccc1OCC(=O)O` (stereo unspecified), the EC50 in experiment [2] and in experiment [3] was greater than 10 µM in each case.

As to `Cc1cc(SC(Cc2c(F)c(F)c(F)c(F)c2F)c2sc(-c3ccc(C(F)(F)F)cc3)nc2C)ccc1OCC(=O)O` (stereo unspecified), the EC50 in experiment [2] is greater than 10 µM; in experiment [4], 0.0081 µM; in experiment [3] it was greater than 10 µM. The Ratio EC50 in experiment [5] was 10000.

Consider `Cc1cc(SC(c2sc(-c3ccc(C(F)(F)F)cc3)nc2C)C(c2ccccc2)c2ccccc2)ccc1OCC(=O)O` (stereo unspecified), for which the EC50 was greater than 10 µM in experiment [2], 0.523 µM in experiment [4] and greater than 10 µM in experiment [3].

In the case of `COc1ccc(CC(Sc2ccc(OCC(=O)O)c(C)c2)c2sc(-c3ccc(C(F)(F)F)cc3)nc2C)cc1` (stereo unspecified), the EC50 in experiment [2] was greater than 10 µM; in experiment [4], 0.0048 µM; in experiment [3] it was greater than 10 µM.

Consider `Cc1cc(SC(Cc2cc(F)ccc2F)c2sc(-c3ccc(C(F)(F)F)cc3)nc2C)ccc1OCC(=O)O` (stereo unspecified), for which the EC50 in experiment [2] is greater than 10 µM; in experiment [4], 0.0167 µM; in experiment [3] it was greater than 10 µM. Moreover, the Ratio EC50 in experiment [5] worked out at 10000.

Take `Cc1cc(SC(Cc2c(F)cccc2F)c2sc(-c3ccc(C(F)(F)F)cc3)nc2C)ccc1OCC(=O)O` (stereo unspecified): the EC50 was greater than 10 µM in experiment [2], 0.0021 µM in experiment [4] and greater than 10 µM in experiment [3]. The Ratio EC50 in experiment [5] worked out at 10000. Moreover, the Activity in experiment [6] was determined as 35%.

`Cc1cc(SC(Cc2ccc(-c3ccccc3)cc2)c2sc(-c3ccc(C(F)(F)F)cc3)nc2C)ccc1OCC(=O)O` (stereo unspecified): the EC50 in experiment [2] is greater than 10 µM; in experiment [4], 0.0044 µM; in experiment [3], greater than 10 µM.

With `Cc1cc(SC(CCCCCCCCCCc2ccccc2)c2sc(-c3ccc(C(F)(F)F)cc3)nc2C)ccc1OCC(=O)O` (stereo unspecified), the EC50 in experiment [2] and in experiment [3] was greater than 10 µM throughout.

For the molecule `Cc1cc(SC(Cc2c(Cl)cccc2Cl)c2sc(-c3ccc(C(F)(F)F)cc3)nc2C)ccc1OCC(=O)O` (stereo unspecified), the EC50 in experiment [2] is greater than 10 µM; in experiment [4] it was 0.0028 µM; in experiment [3], greater than 10 µM. Moreover, the Ratio EC50 in experiment [5] is 10000.

With `Cc1cc(SC(Cc2cccc3ccccc23)c2sc(-c3ccc(C(F)(F)F)cc3)nc2C)ccc1OCC(=O)O` (stereo unspecified), the EC50 in experiment [2] was greater than 10 µM; in experiment [4], 0.49 µM; in experiment [3], greater than 10 µM.

Take `Cc1cc(SC(Cc2c(F)cccc2Cl)c2sc(-c3ccc(C(F)(F)F)cc3)nc2C)ccc1OCC(=O)O` (stereo unspecified): the results for the EC50 in experiment [2], in experiment [4] and in experiment [3] were greater than 10 µM, 0.0012 µM and greater than 10 µM, respectively. Further, in experiment [5], the Ratio EC50 was 10000.

For `Cc1cc(SC(Cc2ccc(C(F)(F)F)cc2)c2sc(-c3ccc(C(F)(F)F)cc3)nc2C)ccc1OCC(=O)O` (stereo unspecified), the EC50 in experiment [2] is greater than 10 µM; in experiment [4], 0.0094 µM; in experiment [3], greater than 10 µM.

Consider `Cc1cc(SC(Cc2cc(F)c(F)c(F)c2)c2sc(-c3ccc(C(F)(F)F)cc3)nc2C)ccc1OCC(=O)O` (stereo unspecified), for which the EC50 in experiment [2] was greater than 10 µM; in experiment [4] it was 0.0067 µM; in experiment [3], greater than 10 µM.

For `Cc1cc(SC(Cc2c(F)cccc2C(F)(F)F)c2sc(-c3ccc(C(F)(F)F)cc3)nc2C)ccc1OCC(=O)O` (stereo unspecified), the EC50 is greater than 10 µM in experiment [2], 0.0012 µM in experiment [4] and greater than 10 µM in experiment [3]. In addition, the Ratio EC50 in experiment [5] was found to be 10000. Further, in experiment [6], the Activity is on record as 24%.

Consider `Cc1cc(SC(CCCCc2ccccc2)c2sc(-c3ccc(C(F)(F)F)cc3)nc2C)ccc1OCC(=O)O` (stereo unspecified), for which the EC50 in experiment [2] and in experiment [3] was greater than 10 µM in each case.

As for `Cc1cc(SC(CCCCCCCc2ccccc2)c2sc(-c3ccc(C(F)(F)F)cc3)nc2C)ccc1OCC(=O)O` (stereo unspecified), the EC50 in experiment [2] and in experiment [3] was greater than 10 µM each time.

For `Cc1cc(SC(CCCc2ccccc2)c2sc(-c3ccc(C(F)(F)F)cc3)nc2C)ccc1OCC(=O)O` (stereo unspecified), the EC50 in experiment [2] and in experiment [3] was greater than 10 µM throughout.

For `Cc1cc(SC(CCCCCc2ccccc2)c2sc(-c3ccc(C(F)(F)F)cc3)nc2C)ccc1OCC(=O)O` (stereo unspecified), the EC50 in experiment [2] and in experiment [3] was greater than 10 µM throughout.

On to `Cc1cc(SC(C)c2sc(-c3ccc(C(F)(F)F)cc3)nc2C)ccc1OCC(=O)O` (stereo unspecified), for which the EC50 is greater than 10 µM in experiment [2], 0.0018 µM in experiment [4] and 0.136 µM in experiment [3].

Turning to `Cc1cc(SC(CC2CC2)c2sc(-c3ccc(C(F)(F)F)cc3)nc2C)ccc1OCC(=O)O` (stereo unspecified), the EC50 is greater than 10 µM in experiment [2], 0.0011 µM in experiment [4] and 0.861 µM in experiment [3].

Turning to `Cc1cc(SC(Cc2ccc([N+](=O)[O-])cc2)c2sc(-c3ccc(C(F)(F)F)cc3)nc2C)ccc1OCC(=O)O` (stereo unspecified), the EC50 in experiment [2] is greater than 10 µM; in experiment [4], 0.06 µM; in experiment [3] it was greater than 10 µM.

For the molecule `Cc1cc(SC(CC(C)C)c2sc(-c3ccc(C(F)(F)F)cc3)nc2C)ccc1OCC(=O)O` (stereo unspecified), the EC50 is greater than 10 µM in experiment [2], 0.0011 µM in experiment [4] and 0.592 µM in experiment [3].

As for `Cc1cc(SC(Cc2ccc(F)cc2F)c2sc(-c3ccc(C(F)(F)F)cc3)nc2C)ccc1OCC(=O)O` (stereo unspecified), the EC50 in experiment [2] was greater than 10 µM; in experiment [4], 0.0046 µM; in experiment [3], greater than 10 µM. Further, the Ratio EC50 in experiment [5] worked out at 10000.

For the molecule `Cc1cc(SC(CCc2ccccc2)c2sc(-c3ccc(C(F)(F)F)cc3)nc2C)ccc1OCC(=O)O` (stereo unspecified), the figures for the EC50 in experiment [2], in experiment [4] and in experiment [3] were greater than 10 µM, 0.0026 µM and greater than 10 µM, respectively.
